Assay results reported in patent US9145392B2, “Imidazole amines as modulators of kinase activity” (Merck Patent GmbH, priority 2011, dated 2015).

Key:
[1] = biological target: His-AKT (Full Length) (Homo sapiens (Human), UniProt P31749); experiment: AKT enzyme assay; type: biochemical; settings: read-out: IC50 AKT
[2] = biological target: P70S6K (T412E mutant) (Homo sapiens (Human), UniProt P23443, T412E); experiment: P70S6K enzyme assay; type: biochemical; settings: read-out: IC50 p70S6K
Summary of the method: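 Phosphorylated product and substrate peptide separated by microfluidic capillary electrophoresis (Caliper LabChip 3000), product peaks resolving before substrate.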

Sequence of P70S6K (T412E mutant) (P23443 whole entry T412E): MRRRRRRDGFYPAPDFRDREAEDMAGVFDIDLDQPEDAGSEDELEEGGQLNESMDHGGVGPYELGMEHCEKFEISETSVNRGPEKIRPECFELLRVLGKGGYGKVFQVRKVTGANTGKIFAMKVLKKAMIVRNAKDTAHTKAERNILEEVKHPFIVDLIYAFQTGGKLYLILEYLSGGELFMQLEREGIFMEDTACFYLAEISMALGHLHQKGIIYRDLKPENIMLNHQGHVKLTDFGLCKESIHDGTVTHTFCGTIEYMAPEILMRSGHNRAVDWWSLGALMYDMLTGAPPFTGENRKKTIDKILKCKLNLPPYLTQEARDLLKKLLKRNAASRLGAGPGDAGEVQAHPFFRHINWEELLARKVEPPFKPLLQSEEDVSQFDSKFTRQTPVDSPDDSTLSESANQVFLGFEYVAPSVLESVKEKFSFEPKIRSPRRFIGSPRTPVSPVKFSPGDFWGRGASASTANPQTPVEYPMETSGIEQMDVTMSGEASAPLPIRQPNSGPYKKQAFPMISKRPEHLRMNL
Sequence of His-AKT (Full Length) (P31749 whole entry): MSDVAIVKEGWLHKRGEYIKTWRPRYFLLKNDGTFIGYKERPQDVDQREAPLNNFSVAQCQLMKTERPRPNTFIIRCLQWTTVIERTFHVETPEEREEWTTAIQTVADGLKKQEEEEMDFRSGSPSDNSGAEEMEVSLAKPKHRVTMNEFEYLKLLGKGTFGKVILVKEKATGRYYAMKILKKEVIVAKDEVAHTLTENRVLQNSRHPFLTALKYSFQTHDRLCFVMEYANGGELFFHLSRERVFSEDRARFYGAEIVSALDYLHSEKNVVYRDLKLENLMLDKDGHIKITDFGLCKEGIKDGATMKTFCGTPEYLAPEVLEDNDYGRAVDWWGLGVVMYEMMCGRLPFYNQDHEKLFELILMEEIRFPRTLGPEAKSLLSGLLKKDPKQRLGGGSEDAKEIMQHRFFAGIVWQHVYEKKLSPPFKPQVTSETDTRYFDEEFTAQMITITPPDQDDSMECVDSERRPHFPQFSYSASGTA

| SMILES | IC50 [1] | IC50 [2] |
| --- | --- | --- |
| CNCCn1cc(-c2ccnc(C(F)(F)F)c2)nc1C1CCN(c2cc(N)ncn2)CC1 [Compound 167, 6-(4-(1-(2-(methylamino)ethyl)-4-(2-(trifluoromethyl)pyridin-4-yl)-1H-imidazol-2-yl)piperidin-1-yl)pyrimidin-4-amine] | > 1000 nM | 130 nM |
| CN(C)CCn1cc(-c2ccc(F)c(C(F)(F)F)c2)nc1C1CCN(c2ncnc(N)c2-c2ccc(C(C)(C)O)cc2)CC1 [Compound 87, 2-(4-(4-Amino-6-(4-(1-(2-(dimethylamino)ethyl)-4-(4-fluoro-3-(trifluoromethyl)phenyl)-1H-imidazol-2-yl)piperidin-1-yl)pyrimidin-5-yl)phenyl)propan-2-ol] | 190 nM | 9.3 nM |
| N#Cc1c(N)ncnc1N1CCC(c2nc(-c3ccc(F)c(C(F)(F)F)c3)cn2C2CCNC2)CC1 (centres unmarked) [Compound 137, 4-amino-6-(4-(4-(4-fluoro-3-(trifluoromethyl)phenyl)-1-(pyrrolidin-3-yl)-1H-imidazol-2-yl)piperidin-1-yl)pyrimidine-5-carbonitrile] | 11 nM | 2.7 nM |
| C=C(C)c1c(N)ncnc1N1CCC(c2nc(-c3ccc(F)c(C(F)(F)F)c3)cn2CCN2CCCC2)CC1 [Compound 213] | 20 nM | 7.9 nM |
| CCc1c(N)ncnc1N1CCC(c2nc(-c3ccc(F)cc3)cn2CCN2CC3(COC3)C2)CC1 [Compound 197, 5-Ethyl-6-(4-{4-(4-fluoro-phenyl)-1-[2-(2-oxa-6-aza-spiro[3.3]hept-6-yl)-ethyl]-1H-imidazol-2-yl}-piperidin-1-yl)-pyrimidin-4-ylamine] | 130 nM | 6.3 nM |
| NC(=O)c1c(N)ncnc1N1CCC(c2nc(-c3ccc(F)c(C(F)(F)F)c3)cn2CC2CNC2)CC1 [Compound 140, 4-amino-6-(4-(1-(azetidin-3-ylmethyl)-4-(4-fluoro-3-(trifluoromethyl)phenyl)-1H-imidazol-2-yl)piperidin-1-yl)pyrimidine-5-carboxamide] | 27 nM | 2.2 nM |
| CN(C)CCn1cc(-c2ccc(F)c(C(F)(F)F)c2)nc1C1CCN(c2ncnc(N)c2C2=CCCC2)CC1 [Compound 90] | 31 nM | 3.1 nM |
| CC(C)c1cc(-c2cn(CCN3CCC3)c(C3CCN(c4ncnc(N)c4Cl)CC3)n2)ccn1 [Compound 180, 6-(4-(1-(2-(azetidin-1-yl)ethyl)-4-(2-isopropylpyridin-4-yl)-1H-imidazol-2-yl)piperidin-1-yl)-5-chloropyrimidin-4-amine] | 2.4 nM | 1.1 nM |
| CCc1c(N)ncnc1N1CCC(c2nc(-c3ccc(F)c(C(N)=O)c3)cn2CCN2CCC2)CC1 [Compound 106, 5-(2-(1-(6-amino-5-ethylpyrimidin-4-yl)piperidin-4-yl)-1-(2-(azetidin-1-yl)ethyl)-1H-imidazol-4-yl)-2-fluorobenzamide] | 49 nM | 21 nM |
| CNCCn1cc(-c2ccnc(C(F)(F)F)c2)nc1C1CCN(c2ncnc(N)c2Cl)CC1 [Compound 172, 5-chloro-6-(4-(1-(2-(methylamino)ethyl)-4-(2-(trifluoromethyl)pyridin-4-yl)-1H-imidazol-2-yl)piperidin-1-yl)pyrimidin-4-amine] | 1.4 nM | 2 nM |
| Cc1cc(-c2cn(CCNC(C)(C)C)c(C3CCN(c4ncnc(N)c4-c4cn[nH]c4)CC3)n2)ccc1F [Compound 165, 6-(4-(1-(2-(tert-butylamino)ethyl)-4-(4-fluoro-3-methylphenyl)-1H-imidazol-2-yl)piperidin-1-yl)-5-(1H-pyrazol-4-yl)pyrimidin-4-amine] | 5.5 nM | 2.8 nM |
| Nc1ncnc(N2CCC(c3nc(-c4ccc(F)cc4)cn3CCN3CCCC3)CC2)c1Cl [Compound 237] | 3.3 nM | 0.8 nM |
| COc1c(N)ncnc1N1CCC(c2nc(-c3ccc(F)c(C(F)(F)F)c3)cn2C)CC1 [Compound 9, 6-{4-[4-(4-Fluoro-3-trifluoromethyl-phenyl)-1-methyl-1H-imidazol-2-yl]-piperidin-1-yl}-5-methoxy-pyrimidin-4-ylamine] | 440 nM | 2.1 nM |
| NC(=O)c1c(N)ncnc1N1CCC(c2nc(-c3ccc(F)c(C(F)(F)F)c3)cn2CC2CCCN2)CC1 (centres unmarked) [Compound 153, 4-amino-6-(4-(4-(4-fluoro-3-(trifluoromethyl)phenyl)-1-(pyrrolidin-2-ylmethyl)-1H-imidazol-2-yl)piperidin-1-yl)pyrimidine-5-carboxamide] | 220 nM | 10 nM |
| Nc1ncnc(N2CCC(c3nc(-c4ccc(F)c(C(F)(F)F)c4)cn3CCN3CCCCC3)CC2)c1-c1ccccc1F [Compound 63] | 130 nM | 5.1 nM |
| CCOc1c(N)ncnc1N1CCC(c2nc(-c3ccc(F)c(C(F)(F)F)c3)cn2CCN2CCC2)CC1 [Compound 102, 6-(4-(1-(2-(azetidin-1-yl)ethyl)-4-(4-fluoro-3-(trifluoromethyl)phenyl)-1H-imidazol-2-yl)piperidin-1-yl)-5-ethoxypyrimidin-4-amine] | 4.1 nM | 2.4 nM |
| CCc1c(N)ncnc1N1CCC(c2nc(-c3ccnc(C(F)(F)F)c3)cn2CCN2CCC2)CC1 [Compound 105, 6-(4-(1-(2-(azetidin-1-yl)ethyl)-4-(2-(trifluoromethyl)pyridin-4-yl)-1H-imidazol-2-yl)piperidin-1-yl)-5-ethylpyrimidin-4-amine] | 13 nM | 2.7 nM |
| Cn1cc(-c2ccc(F)c(C(F)(F)F)c2)nc1C1CCN(c2ncnc(N)c2C(N)=O)CC1 [Compound 37, 4-Amino-6-{4-[4-(4-fluoro-3-trifluoromethyl-phenyl)-1-methyl-1H-imidazol-2-yl]-piperidin-1-yl}-pyrimidine-5-carboxamide] | 1600 nM | 2.6 nM |
| COC(=O)c1ccc(-c2c(N)ncnc2N2CCC(c3nc(-c4ccc(F)c(C(F)(F)F)c4)cn3CCN3CCC3)CC2)cc1 [Compound 222] | 43 nM | 11 nM |
| Cn1cc(-c2ccc(F)c(C(F)(F)F)c2)nc1C1CCN(c2ncnc(N)c2Br)CC1 [Compound 1, 5-Bromo-6-{4-[4-(4-fluoro-3-trifluoromethyl-phenyl)-1-methyl-1H-imidazol-2-yl]-piperidin-1-yl}-pyrimidin-4-ylamine] | 66 nM | 2.1 nM |

The remaining lines, values ahead:

| IC50 [1] | IC50 [2] | SMILES |
| --- | --- | --- |
| 210 nM | 4.4 nM | C=Cc1c(N)ncnc1N1CCC(c2nc(-c3ccc(C(F)(F)F)c(F)c3)cn2CCN2CCCC2)CC1 [Compound 239] |
| 2.5 nM | 1.4 nM | COCCNCCn1cc(-c2ccc(F)c(C(F)(F)F)c2)nc1C1CCN(c2ncnc(N)c2C#N)CC1 [Compound 364, 4-Amino-6-(4-{4-(4-fluoro-3-trifluoromethyl-phenyl)-1-[2-(2-methoxy-ethylamino)-ethyl]-1H-imidazol-2-yl}-piperidin-1-yl)-pyrimidine-5-carbonitrile] |
| 180 nM | 1.6 nM | NC(=O)c1c(N)ncnc1N1CCC(c2nc(-c3ccc(F)c(C(F)(F)F)c3)cn2CCO)CC1 [Compound 395, 4-Amino-6-{4-[4-(4-fluoro-3-trifluoromethyl-phenyl)-1-(2-hydroxy-ethyl)-1H-imidazol-2-yl]-piperidin-1-yl}-pyrimidine-5-carboxylic acid amide] |
| 1.4 nM | 1.9 nM | Cc1cc(-c2cn(CCNCC(C)C)c(C3CCN(c4ncnc(N)c4C#N)CC3)n2)ccc1F [Compound 390, 4-Amino-6-{4-[4-(4-fluoro-3-methyl-phenyl)-1-(2-isobutylamino-ethyl)-1H-imidazol-2-yl]-piperidin-1-yl}-pyrimidine-5-carbonitrile] |
| 2.5 nM | 0.9 nM | CC(C)NCCn1cc(-c2ccc(F)c(C(F)(F)F)c2)nc1C1CCN(c2ncnc(N)c2C(N)=O)CC1 [Compound 370, 4-Amino-6-{4-[4-(4-fluoro-3-trifluoromethyl-phenyl)-1-(2-isopropylamino-ethyl)-1H-imidazol-2-yl]-piperidin-1-yl}-pyrimidine-5-carboxylic acid amide] |
| 80 nM | 17 nM | CS(=O)(=O)c1cccc(-c2cn(CCN3CCC3)c(C3CCN(c4ncnc(N)c4C#N)CC3)n2)c1 [Compound 355, 4-Amino-6-{4-[1-(2-azetidin-1-yl-ethyl)-4-(3-methanesulfonyl-phenyl)-1H-imidazol-2-yl]-piperidin-1-yl}-pyrimidine-5-carbonitrile] |
| 5800 nM | 2700 nM | NC(=O)c1c(N)ncnc1N1CCC(c2nc(-c3cc[nH]c(=O)c3)cn2CCN2CCC2)CC1 [Compound 339] |
| 8 nM | 2.6 nM | CCOc1c(N)ncnc1N1CCC(c2nc(-c3ccc(F)c(C(F)(F)F)c3)cn2CCN(C)C)CC1 [Compound 291] |
| 13 nM | 5.5 nM | Cc1cc(-c2cn(CCNCC(C)C)c(C3CCN(c4ncnc(N)c4C(N)=O)CC3)n2)ccc1F [Compound 392, 4-Amino-6-{4-[4-(4-fluoro-3-methyl-phenyl)-1-(2-isobutylamino-ethyl)-1H-imidazol-2-yl]-piperidin-1-yl}-pyrimidine-5-carboxylic acid amide] |
| 4.3 nM | 1.7 nM | CCC(C)(C)NCCn1cc(-c2ccc(F)c(C(F)(F)F)c2)nc1C1CCN(c2ncnc(N)c2C#N)CC1 [Compound 382, 4-Amino-6-{4-[1-[2-(1,1-dimethyl-propylamino)-ethyl]-4-(4-fluoro-3-trifluoromethyl-phenyl)-1H-imidazol-2-yl]-piperidin-1-yl}-pyrimidine-5-carbonitrile] |
| 730 nM | 135 nM | Nc1ncnc(N2CCC(c3nc(-c4ccc(F)c(C(F)(F)F)c4)cn3CCN3CCCC3)CC2)c1C(=O)O [Compound 286] |
| 15 nM | 4.6 nM | NC(=O)c1c(N)ncnc1N1CCC(c2nc(-c3ccc(F)c(C(F)(F)F)c3)cn2CCN2CCCC2)CC1 [Compound 331] |
| 9.2 nM | 3.9 nM | CCc1c(N)ncnc1N1CCC(c2nc(-c3ccc(F)c(Cl)c3)cn2CCN2CCC2)CC1 [Compound 281] |
| 3.2 nM | 0.9 nM | Nc1ncnc(N2CCC(c3nc(-c4ccc(F)c(F)c4)cn3CCN3CCCC3)CC2)c1Cl [Compound 238] |
